Reference: patent US12241114B2, “Biophysical platform for drug development based on energy landscape” (BRANDEIS UNIVERSITY, priority 2014, dated 2025)
Numbering of substitutions follows the chain as printed.

Legend:
[1] = target: T1, unphosphorylated Aurora A (Homo sapiens, UniProt O14965); assay: Stopped-flow tryptophan fluorescence binding and dissociation kinetics on unphosphorylated Aurora A
T1 sequence (O14965 122-403): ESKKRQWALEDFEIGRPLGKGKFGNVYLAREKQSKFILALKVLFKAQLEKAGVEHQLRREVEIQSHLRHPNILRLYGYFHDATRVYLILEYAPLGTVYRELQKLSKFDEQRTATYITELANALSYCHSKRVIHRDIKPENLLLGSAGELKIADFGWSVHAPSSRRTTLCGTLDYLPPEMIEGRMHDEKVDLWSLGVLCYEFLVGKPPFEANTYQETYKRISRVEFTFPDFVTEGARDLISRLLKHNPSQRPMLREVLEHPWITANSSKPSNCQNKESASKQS
Method: The stopped-flow instrument is a SX20 series from AppliedPhotophysics.
In the following equations, K1, K2 and K3 equal to:
[formula] Error bars calculations of the dissociation constant parameter (calculated from the kinetics) are calculated using classical error propagation equations. Aurora A Wild-Type Binding to MantATP

Aurora A wild-type = target: T2, Aurora A wild-type (Homo sapiens, UniProt O14965); assay: FRET stopped-flow kinetics of MantATP binding to Aurora A; conditions: 10° C., double exponential
T2 sequence (O14965 122-403): T1 sequence (O14965 122-403)
Method: FRET using intrinsic tryptophan fluorescence is used to monitor MantATP binding kinetics to Aurora A at 10° C. […] In the release of MantATP experiment or koff, 10 μM/10 μM Aurora A/MantATP complex were diluted with buffer (ratio 1:10). A significant decrease in the fluorescence intensity of Aurora A (excitation at 295 nm, emission cut-off at 395 nm) can be seen due to the MantATP release.

Y199H modern Aurora A = target: T3, Y199H modern Aurora A (Homo sapiens, UniProt O14965, T288V/Y199H); assay: Isothermal titration calorimetry of TPX2 binding to Y199H Aurora A; conditions: Y199H versus modern Aurora A
T3 sequence (O14965 122-403 Y199H/T288V): T1 sequence (O14965 122-403) with Y78H, T167V
Method: FIGS. 33A-33C are plots and schematics showing Y199 is an Aurora A hotspot important in TPX2 binding.
All titrations were carried out using Nano ITC (TA instruments) and analyzed via the NanoAnalyze software using the independent fit model. Injectant was added in […] volume, every 180 s, with a constant stirring speed at 350 rpm and at 25° C. Prior to ITC titration, both protein and peptide were dialyzed/resuspended in 20 mM TrisHCl, 200 mM NaCl, 10% (v/v) glycerol, 1 mM TCEP, pH 7.50.

CO[C@@H](C(=O)N1Cc2n[nH]c(NC(=O)c3ccc(N4CCN(C)CC4)cc3)c2C1)c1ccccc1 [Danusertib]
tighter binding from the conformational change after drug binding [1]: three orders of magnitude | weakening of overall affinity by the DFG-in/-out equilibrium [1]: 20% | dissociation kinetics ([1]; 25° C., after 30-fold dilution of the complex): slow, taking hours to be released | Keq of the induced fit step ([1]; 25° C., global fit): 5×10^−4

Cc1ccc(NC(=O)c2ccc(CN3CCN(C)CC3)cc2)cc1Nc1nccc(-c2cccnc2)n1 [Gleevec]
apparent rate constant of dissociation ([1]; 10° C., after 10-fold dilution of the complex): 50 s⁻¹ | observed off rate, times faster than the Danusertib off rate ([1]; Gleevec versus Danusertib): 10^6-10^7

MantATP
plateau of second observed rate constant (Aurora A wild-type): around 20 s^−1

modern TPX2: modern-day TPX2 protein, allosteric activator of Aurora A, residues 1-45 (MSQVKSSYSYDAPSDFINFSSLDDEGDTQNIDSWFEEKANLENKL; UniProt Q9ULW0 1-45, looked up, fragment)
weakening of binding by Y199H mutation of Aurora A (Y199H modern Aurora A): approximately 20 fold
